These results are taken from patent US10344019B2 (priority 2010, dated 2019).

What all share (assay): microbe, parasite or virus in culture
Common to all, as to assay type: cell-based

For assay [1], the system named is HCV 1a RLuc cells (dicistronic genotype 1a H77 replicon, RLuc reporter). The settings on record: Hepatitis C virus, genotype 1a replicon; read-out: 1a. An outline of the steps: (§1)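 Renilla luciferase HCV replicon cells: dicistronic 1b Con1, 1a H77 or 2a JFH-1 replicons, or a JFH-1 chimera carrying J6 NS5A (M31 present). Compound in DMSO serial dilutions, 72 h incubation, then lysis and luciferase read. EC50 by non-linear regression.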

Assay [2] relates to HCV 1b RLuc cells (dicistronic genotype 1b Con1 replicon, RLuc reporter). The following applies: Hepatitis C virus, read-out: 1b (nM). The essentials:
as §1

The test system of assay [3] is HCV 2a JFH-1 Rluc cells (dicistronic genotype 2a JFH-1 replicon, RLuc reporter). The settings on record: Hepatitis C virus, genotype 2a JFH-1 replicon; read-out: 2a JFH. An outline of the steps: as §1
In general terms: A replicon is a self-replicating genome or part of one, used to study replication in cells.

Assay [4] relates to HCV 3a RLuc cells (NS5A chimeric genotype 1b Con1 replicon with consensus genotype 3a NS5A gene). The settings on record: Hepatitis C virus, read-out: 3a, genotype 3a replicon. The essentials: (§2)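 Replicon cells stably carrying the listed RLuc-encoding dicistronic replicons were seeded and treated with DMSO serial dilutions of compound (10 mM stocks) diluted into culture medium. After 72 h, cells were lysed and Renilla luciferase activity measured. EC50 was derived by non-linear regression.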

Assay [5] has as its system HCV 4a Rluc cells (NS5A chimeric genotype 1b Con1 replicon with genotype 4a NS5A gene). The settings on record: Hepatitis C virus, read-out: 4a. An outline of the steps: as §2

Molecules are shown by their SMILES.

Consider `COC(=O)NC(C(=O)N1[C@@H]2CC[C@@H](C2)[C@H]1c1ncc(-c2ccc(-c3ccc4c(ccc5nc([C@@H]6C[C@H]7C[C@H]7N6C(=O)[C@@H](NC(=O)OC)C(C)C)[nH]c54)c3)cc2F)[nH]1)[C@@H](C)OC` (stereo partly drawn) [Example 321], for which the EC50 is 0.001 to 0.999 nM in assay [1]; 0.006 nM in assay [2]; 0.001 to 0.999 nM in assay [3]; 0.001 to 0.99 nM in assay [4]; 0.001 to 0.99 nM in assay [5].

On to `CC#Cc1cc(-c2cnc([C@@H]3[C@H]4CC[C@H](C4)N3C(=O)[C@@H](NC(=O)OC)C3CCOCC3)[nH]2)ccc1-c1ccc2c(ccc3nc([C@@H]4CCCN4C(=O)[C@@H](NC(=O)OC)C(C)C)[nH]c32)c1` [Example 322], for which the EC50 in assay [1] is 0.001 to 0.999 nM; in assay [2], 0.021 nM; in assay [3], 0.001 to 0.999 nM; in assay [4], 0.001 to 0.99 nM; in assay [5], 0.001 to 0.99 nM.

`COC(=O)N[C@H](C(=O)N1CCC[C@H]1c1ncc(-c2ccc3cc(-c4ccc5c(ccc6nc([C@@H]7[C@H]8CC[C@H](C8)N7C(=O)[C@H](NC(=O)OC)c7ccccc7)[nH]c65)c4)ccc3c2)[nH]1)C(C)C` [Example 326]: the EC50 in assay [1] is 0.001 to 0.999 nM; in assay [2], 0.005 nM; in assay [3], 0.001 to 0.999 nM; in assay [4], 1 to 4.99 nM; in assay [5], 0.001 to 0.99 nM.

For `COC(=O)N[C@H](C(=O)N1CCC[C@H]1c1ncc(-c2ccc3cc(-c4ccc5c(ccc6nc([C@@H]7[C@H]8CC[C@H](C8)N7C(=O)[C@H](NC(=O)OC)c7ccccc7)[nH]c65)c4)ccc3c2)[nH]1)C1CCOCC1` [Example 327], the EC50 was 0.001 to 0.999 nM in assay [1]; 0.011 nM in assay [2]; 0.001 to 0.999 nM in assay [3]; 0.001 to 0.99 nM in assay [4]; 0.001 to 0.99 nM in assay [5].

As for `COC(=O)N[C@H](C(=O)N1CCC[C@H]1c1ncc(-c2ccc3cc(-c4ccc5c(ccc6nc([C@@H]7[C@H]8CC[C@H](C8)N7C(=O)[C@H](NC(=O)OC)c7ccccc7)[nH]c65)c4)ccc3c2)[nH]1)[C@@H](C)OC` [Example 328], the EC50 was 0.001 to 0.999 nM in assay [1]; 0.008 nM in assay [2]; 0.001 to 0.999 nM in assay [3]; 1 to 4.99 nM in assay [4]; 0.001 to 0.99 nM in assay [5].

For the molecule `CC#Cc1cc(-c2cnc([C@@H]3[C@H]4CC[C@H](C4)N3C(=O)[C@@H](NC(=O)OC)C(C)C)[nH]2)ccc1-c1ccc(-c2cnc([C@@H]3CCCN3C(=O)[C@@H](NC(=O)OC)C(C)C)[nH]2)cc1` [Example 329], the EC50 in assay [1] is 0.001 to 0.999 nM; in assay [2], 0.008 nM; in assay [3], 0.001 to 0.999 nM; in assay [4], 1 to 4.99 nM; in assay [5], 0.001 to 0.99 nM.

With `COC(=O)N[C@H](C(=O)N1CCC[C@H]1c1ncc(-c2ccc3c(c2F)COc2c-3ccc(-c3cnc([C@@H]4CCCN4C(=O)[C@@H](NC(=O)OC)C(C)C)[nH]3)c2F)[nH]1)C(C)C` [Example 330], the EC50 was 0.001 to 0.999 nM in assay [1]; 0.006 nM in assay [2]; 0.001 to 0.999 nM in assay [3]; 0.001 to 0.99 nM in assay [4]; 0.001 to 0.99 nM in assay [5].

Take `COC(=O)N[C@H](C(=O)N1CCC[C@H]1c1ncc(-c2ccc3c(c2)OCc2c-3ccc(-c3cnc([C@@H]4CCCN4C(=O)[C@@H](NC(=O)OC)C(C)C)[nH]3)c2F)[nH]1)C(C)C` [Example 331]: the EC50 in assay [1] is 0.001 to 0.999 nM; in assay [2], 0.006 nM; in assay [3], 0.001 to 0.999 nM; in assay [4] it was 0.001 to 0.99 nM; in assay [5] it was 0.001 to 0.99 nM.

Consider `COC(=O)N[C@H](C(=O)N1CCS[C@@H]1c1nc2ccc3cc(-c4ccc(-c5cnc([C@@H]6CCCN6C(=O)[C@@H](NC(=O)OC)C6CCOCC6)[nH]5)cc4)ccc3c2[nH]1)C(C)C` [Example 332], for which the EC50 in assay [1] was 1 to 44 nM; in assay [2] it was 1.25 nM; in assay [3], 0.001 to 0.999 nM; in assay [4] it was 1 to 4.99 nM; in assay [5] it was 0.001 to 0.99 nM.

As to `COC(=O)N[C@H](C(=O)N1CCC[C@H]1c1ncc(-c2ccc(-c3ccc4c(ccc5nc([C@@H]6SCCN6C(=O)[C@@H](NC(=O)OC)C(C)C)[nH]c54)c3)cc2)[nH]1)C(C)C` [Example 333], the EC50 in assay [1] is 1 to 44 nM; in assay [2], 0.646 nM; in assay [3], 0.001 to 0.999 nM; in assay [4] it was 1 to 4.99 nM; in assay [5], 0.001 to 0.99 nM.

For `COC(=O)N[C@@H](C(=O)N1[C@@H]2CC[C@@H](C2)[C@H]1c1ncc(-c2ccc(-c3ccc4c(ccc5nc([C@@H]6C[C@H]7C[C@H]7N6C(=O)[C@H](NC(=O)OC)c6ccccc6)[nH]c54)c3)cc2)[nH]1)c1ccccc1` [Example 334], the EC50 in assay [1] was 0.001 to 0.999 nM; in assay [2], 0.009 nM; in assay [3], 0.001 to 0.999 nM; in assay [4] it was 0.001 to 0.99 nM; in assay [5], 0.001 to 0.99 nM.

As for `COC(=O)N[C@H](C(=O)N1[C@@H]2C[C@@H]2C[C@H]1c1nc2ccc3cc(-c4ccc(-c5cnc([C@@H]6[C@H]7CC[C@H](C7)N6C(=O)[C@@H](NC(=O)OC)C6CCOCC6)[nH]5)cc4)ccc3c2[nH]1)C(C)C` [Example 335], the EC50 was 0.001 to 0.999 nM in assay [1]; 0.027 nM in assay [2]; 0.001 to 0.999 nM in assay [3]; 0.001 to 0.99 nM in assay [4]; 0.001 to 0.99 nM in assay [5].

Regarding `COC(=O)N[C@H](C(=O)N1[C@@H]2C[C@@H]2C[C@H]1c1nc2ccc3cc(-c4ccc(-c5cnc([C@@H]6[C@H]7CC[C@H](C7)N6C(=O)[C@@H](NC(=O)OC)[C@@H](C)OC)[nH]5)cc4)ccc3c2[nH]1)C(C)C` [Example 336], the EC50 was 0.001 to 0.999 nM in assay [1]; 0.013 nM in assay [2]; 0.001 to 0.999 nM in assay [3]; 1 to 4.99 nM in assay [4]; 0.001 to 0.99 nM in assay [5].

With `COC(=O)N[C@H](C(=O)N1[C@@H]2C[C@@H]2C[C@H]1c1nc2ccc3cc(-c4ccc(-c5cnc([C@@H]6[C@H]7CC[C@H](C7)N6C(=O)[C@H](NC(=O)OC)c6ccccc6)[nH]5)cc4)ccc3c2[nH]1)C(C)C` [Example 337], the EC50 in assay [1] is 0.001 to 0.999 nM; in assay [2] it was 0.01 nM; in assay [3] it was 0.001 to 0.999 nM; in assay [4], 0.001 to 0.99 nM; in assay [5], 0.001 to 0.99 nM.

As for `COC(=O)N[C@H](C(=O)N1[C@H]2CC[C@H](C2)[C@H]1c1nc2ccc3cc(-c4ccc5c(ccc6nc([C@@H]7CCCN7C(=O)[C@@H](NC(=O)OC)C7CCOCC7)[nH]c65)c4)ccc3c2[nH]1)C(C)C` [Example 338], the EC50 was 0.001 to 0.999 nM in assay [1]; 0.127 nM in assay [2]; 0.001 to 0.999 nM in assay [3]; 0.001 to 0.99 nM in assay [4]; 0.001 to 0.99 nM in assay [5].

`COC(=O)N[C@H](C(=O)N1[C@@H]2CC[C@@H](C2)[C@H]1c1nc2ccc3cc(-c4ccc(-c5cnc([C@@H]6C[C@H]7C[C@H]7N6C(=O)[C@@H](NC(=O)OC)C(C)C)[nH]5)cc4)ccc3c2[nH]1)C(C)C` [Example 340]: the EC50 in assay [1] is 0.001 to 0.999 nM; in assay [2], 0.013 nM; in assay [3], 0.001 to 0.999 nM; in assay [4], 0.001 to 0.99 nM; in assay [5] it was 0.001 to 0.99 nM.

Regarding `COC(=O)N[C@H](C(=O)N1CCC[C@H]1c1ncc(-c2cc3c(cc2F)-c2ccc(-c4cnc([C@@H]5CCCN5C(=O)[C@@H](NC(=O)OC)C(C)C)[nH]4)c(F)c2CO3)[nH]1)C(C)C` [Example 341], the EC50 in assay [1] was 0.001 to 0.999 nM; in assay [2], 0.006 nM; in assay [3], 0.001 to 0.999 nM; in assay [4], 0.001 to 0.99 nM; in assay [5] it was 0.001 to 0.99 nM.

With `CC#Cc1cc(-c2cnc([C@@H]3CCCN3C(=O)[C@@H](NC(=O)OC)C(C)C)[nH]2)ccc1-c1ccc(-c2cnc([C@@H]3CCCN3C(=O)[C@@H](NC(=O)OC)C(C)C)[nH]2)cc1` [Example 342], the EC50 in assay [1] was 0.001 to 0.999 nM; in assay [2], 0.01 nM; in assay [3], 0.001 to 0.999 nM; in assay [4], 0.001 to 0.99 nM; in assay [5], 0.001 to 0.99 nM.

Take `COC(=O)N[C@H](C(=O)N1[C@@H]2C[C@@H]2C[C@H]1c1nc2ccc3cc(-c4ccc5c(ccc6nc([C@@H]7[C@H]8CC[C@H](C8)N7C(=O)[C@H](NC(=O)OC)c7ccccc7)[nH]c65)c4)ccc3c2[nH]1)C(C)C` [Example 343]: the EC50 is 0.001 to 0.999 nM in assay [1]; 0.012 nM in assay [2]; 0.001 to 0.999 nM in assay [3]; 0.001 to 0.99 nM in assay [4]; 0.001 to 0.99 nM in assay [5].

Consider `COC(=O)N[C@H](C(=O)N1[C@@H]2CC[C@@H](C2)[C@H]1c1nc2ccc3cc(-c4ccc5c(ccc6nc([C@@H]7C[C@H]8C[C@H]8N7C(=O)[C@H](NC(=O)OC)c7ccccc7)[nH]c65)c4)ccc3c2[nH]1)C(C)C` [Example 344], for which the EC50 is 0.001 to 0.999 nM in assay [1]; 0.01 nM in assay [2]; 0.001 to 0.999 nM in assay [3]; 0.001 to 0.99 nM in assay [4]; 0.001 to 0.99 nM in assay [5].

`CC#Cc1cc(-c2cnc([C@@H]3CCCN3C(=O)[C@@H](NC(=O)OC)C(C)C)[nH]2)ccc1-c1ccc(-c2cnc([C@@H]3CCCN3C(=O)[C@@H](NC(=O)OC)C3CCOCC3)[nH]2)cc1` [Example 347]: the EC50 is 0.001 to 0.999 nM in assay [1]; 0.055 nM in assay [2]; 0.001 to 0.999 nM in assay [3]; 0.001 to 0.99 nM in assay [4]; 0.001 to 0.99 nM in assay [5].
